US10703728B1, “Crystalline form of olaparib and a process for preparing the same” (SCINOPHARM TAIWAN, LTD., priority 2019, dated 2020)
Values after ≈ are worked out from the molar mass of the structure shown.

Tests used:
[1] = Solubility of olaparib at room temperature; type: physicochemical; settings: for solubility: organic solvent or mixture
Description: (§1) “Solvent” refers to a liquid substance capable of dissolving olaparib at a concentration of at least about 2.5% (w/w) at 60° C.

[2] = Solubility of olaparib at 60° C. in solvents and anti-solvents; type: physicochemical
Description: as §1
In the Tables above, examples of good solvents include, but are not limited to, an alcohol (e.g., methanol or ethanol), acetic acid, dimethylacetamide, dimethyl sulfoxide and pyridine. Examples of poor solvents (anti-solvents) include, but are not limited to, water, toluene, acetonitrile, cyclohexane, isopropanol, tetrahydrofuran, n-butanol, xylenes, ethyl acetate and n-heptane.

Solubility of olaparib ([1]; AcOH): >20.0 wt %
Solubility of olaparib (Summary, solvents for olaparib) ([1]; AcOH, DMSO): >15% (w/w)
Solubility of olaparib ([1]; DMSO): >19.1 wt %
solubility ([1]; acetic acid (AcOH), AcOH): > 210 mg/mL
solubility ([1]; dimethyl sulfoxide (DMSO), DMSO): > 210 mg/mL
Solubility of olaparib ([2]; ACN): <2.1 wt %
Solubility of olaparib ([2]; DMAc): >23.5 wt %
Solubility of olaparib (Summary, solvents for olaparib) ([2]; DMAc, Pyridine): >15% (w/w)
Solubility of olaparib ([2]; EA): <1.8 wt %
Solubility of olaparib ([2]; EtOH): 2.6-2.9 wt %
Solubility of olaparib (Summary, solvents for olaparib) ([2]; EtOH, MeOH): 2.5-10% (w/w)
Solubility of olaparib ([2]; IPA): <2.1 wt %
Solubility of olaparib ([2]; MeOH): 6.7-8.8 wt %
Solubility of olaparib ([2]; Pyridine): >21.5 wt %
Solubility of olaparib ([2]; THF): <1.9 wt %
Solubility of olaparib ([2]; Toluene): <1.9 wt %
Solubility of olaparib (Summary, anti-solvents for olaparib) ([2]; Toluene, ACN, Cyclohexane, IPA, THF, EA, Xylenes, n-heptane, Water, n-butanol): <2.5% (w/w)
Solubility of olaparib ([2]; Xylenes): <1.9 wt %
solubility ([2]; acetonitrile (ACN), organic solvent or mixture, ACN): < 16.2 mg/mL
Solubility of olaparib ([2]; cyclohexane): <2.1 wt %
solubility ([2]; dimethylacetamide (DMAc), organic solvent or mixture, DMAc): > 220 mg/mL
solubility ([2]; ethanol (EtOH), organic solvent or mixture, EtOH): 21 to 23 mg/mL (≈ 48.3 to 52.9 mM)
solubility ([2]; ethyl acetate (EA), organic solvent or mixture, EA): < 16.2 mg/mL
solubility ([2]; isopropanol (IPA), organic solvent or mixture, IPA): < 16.2 mg/mL
solubility ([2]; methanol (MeOH), organic solvent or mixture, MeOH): 53 to 70 mg/mL (≈ 122 to 161 mM)
Solubility of olaparib ([2]; n-butanol): <2.1 wt %
Solubility of olaparib ([2]; n-heptane): <2.4 wt %
solubility ([2]; organic solvent or mixture, Pyridine): > 210 mg/mL
solubility ([2]; organic solvent or mixture, Toluene): < 16.9 mg/mL
solubility ([2]; organic solvent or mixture, Xylenes): < 16.2 mg/mL
solubility ([2]; organic solvent or mixture, cyclohexane): < 16.2 mg/mL
solubility ([2]; organic solvent or mixture, n-butanol): < 16.9 mg/mL
solubility ([2]; organic solvent or mixture, n-heptane): < 16.2 mg/mL
solubility ([2]; tetrahydrofuran (THF), organic solvent or mixture, THF): < 16.9 mg/mL
Solubility of olaparib ([2]; water): <1.6 wt %
solubility ([2]; water): < 16.2 mg/mL
SMILES: O=C(c1cc(Cc2n[nH]c(=O)c3ccccc23)ccc1F)N1CCN(C(=O)C2CC2)CC1 [olaparib, 4-[(3-[(4-cyclopropylcarbonyl)piperazin-4-yl]carbonyl)-4-fluorophenyl]methyl(2H)phthalazin-1-one]
